# US5830504A, “Cooperative combinations of ligands contained within a matrix” (La Jolla Cancer Research Foundation, priority 1995, dated 1998)
# Tests used:
# Format in all cases: cell-based
# Rat-1 cells = assay: DNA synthesis ([3H]-thymidine incorporation) in EGF-stimulated Rat-1 cells on vitronectin or collagen; details: 40 ng/ml EGF, 20 μg/ml coating, FIG. 6
# Method: (§1) Rat-1 cells were plated at 1×10^5 cells/well on 24-well plates that had been coated for 12 hours either with 20 μg/ml of vitronectin or 20 μg/ml of type I collagen. Cells were incubated for 36 hours in Dulbecco's modified Eagle's medium containing 0.1% bovine serum albumin followed by addition of buffer or 40 ng/ml EGF (Boehringer Mannheim). After 15 hours, the cells were pulse-labeled with 1 μCi/ml [^3 H]-thymidine (specific activity 6.7 Ci/mmol, DuPont NEN) for 3 hours and thymidine incorporation into DNA was determined by liquid scintillation counting.
# After being serum-starved, the cells were treated with buffer only (samples 1 and 2) or with EGF (samples 3 and 4). Data points are the average of triplicate samples.
# [1] = tested on: αv β3 integrin-IRS-1 association in HIRcB cells; assay: Association of IRS-1 with the vitronectin receptor after insulin stimulation (immunoprecipitation, immunoblot, densitometry); details: insulin-stimulated HIRcB cells; 100 nM insulin; compared with IRS-1 from total cell lysate
# Method: HIRcB cells were grown to 80% confluency in Dulbeccos's modified Eagle's medium (DMEM) containing 10% fetal calf serum (FCS) and 500 nM methotrexate, incubated in DMEM+0.1% BSA for 36 hours, and either left quiescent, or stimulated with 100 nM insulin (Sigma) for 3 minutes. Cell monolayers were rinsed with PBS, frozen with liquid nitrogen and lysed in NP-40 lysis buffer (20 mM Tris-HCl (pH 8.0), 1% NP-40, 10% glycerol, 137 mM NaCl, 1 mM CaCl2, 1 mM MgCl2, 1 mM sodium orthovanadate, 50 mM sodium fluoride, 1 mM phenylmethylsulfonylfluoride, 0.1 U/ml aprotinin, 10 μg/ml pepstatin A). HIRcB cells were immunoprecipitated with anti-αv β3 237 according to Suzuki et al., PNAS USA 83:8614 (1986), as shown in lanes 1 and 3, 237 preimmune serum in lane 2, anti-αv β3 1343 in lane 4, anti-αIIb β3 in lane 5, anti-α5 β1 488 in lane 6 (made according to Argraves et al., J. Cell Biol. 105:1183 (1987)) and an unrelated rabbit antiserum (lane 7). Anti-αv β3 1343 was obtained from a person (Telios Pharmaceuticals, Inc.) and anti-αIIb β3 from Dr. Elisabetta Dejana (Mario Negri Institute, Milan, Italy). Three anti-α5 β1 antibodies and six unrelated polyclonal antibodies tested gave results similar to those shown in lanes 6 and 7. […] In lane 8, anti-αv β3 237 immunocomplexes from insulin-treated cells were dissociated and reprecipitated with the same antibody as follows. […]
# [2] = tested on: FG-C human pancreatic carcinoma cells (αv β3 integrin negative); assay: DNA synthesis ([3H]-thymidine incorporation into DNA) in insulin-stimulated FG-C cells on vitronectin or type I collagen; details: FG-C cells lacking αv β3; 100 mM insulin; FIG. 4 columns 3, 4, 7, 8, 11, 12
# Method: (§2) FG-B (columns 1, 2, 5, 6, 9, and 10) and FG-C cells (columns 3, 4, 7, 8, 11, and 12) were plated at 1×10^5 cells/well on 24-well plates that had been coated either with vitronectin (dark column) or type I collagen (open column) . Plates were coated with 10 μg/ml of either vitronectin or type I collagen for 12 hours followed by blocking with 0.5% bovine serum albumin For 2 hours. Cells were incubated for 36 hours in DMEM containing 10% FCS (columns 1 to 4), or in DMEM containing 0.1% BSA followed by addition of buffer (columns 5 to 8) or 100 mM insulin (columns 9 to 12). FCS is used as a control because it provides maximal stimulation owing to the presence of high levels of growth factors and adhesion proteins.
# (§3) After 15 hours, the cells were pulse-labeled with 1 μCi/ml [^3 H]-thymidine (specific activity 6.7 Ci/mmol, DuPont NEN) for 3 hours and thymidine incorporation into DNA was determined by trichloroacetic acid precipitation and liquid scintillation counting. Error bars indicate the standard error of triplicate determinations.
# [3] = tested on: FG-B human pancreatic carcinoma cells (αv β3 integrin positive); assay: DNA synthesis ([3H]-thymidine incorporation into DNA) in insulin-stimulated FG-B cells on vitronectin or type I collagen; details: 100 mM insulin, plates coated with 10 μg/ml vitronectin or type I collagen, FIG. 4 columns 9, 10
# Method: as §2, §3
# NRK cells = assay: DNA synthesis in IGF-1-stimulated NRK cells on vitronectin, collagen or laminin; details: data not shown
# [4] = tested on: human foreskin fibroblasts; assay: DNA synthesis ([3H]-thymidine incorporation) in PDGF-stimulated human foreskin fibroblasts on vitronectin or collagen; details: 40 ng/ml PDGF-BB, 20 μg/ml coating, FIG. 5 column 3 vs 4
# Method: as §1, with “Human foreskin fibroblasts (Coriell) were” for “Rat-1 cells were”, “vitronectin of” for “vitronectin or”, “ng/ml PDGF-BB” for “ng/ml EGF”
# Cells were serum-starved and treated with buffer only (samples 1 and 2) or with PDGF (samples 3 and 4). Data points are the average of duplicate samples.
substance,measurement,setting,value
"Epidermal growth factor (NSDSECPLSHDGYCLHDGVCMYIEALDKYACNCVVGYIGERCQYRDLKWWELR; Epidermal growth factor; UniProt P01133 971-1023, looked up) [EGF, EGF from Boehringer Mannheim]",Response (DNA synthesis) to EGF on vitronectin versus collagen,Rat-1 cells,same response
insulin,Share of IRS-1 complexed with the vitronectin receptor,[1],Five to eight
same,Difference in DNA synthesis response on vitronectin and collagen,[2],no difference
same,"DNA synthesis in response to insulin, on vitronectin relative to collagen",[3],about 2.5 fold
insulin-like growth factor [IGF-1],"DNA synthesis in response to IGF-1, on vitronectin relative to collagen or laminin",NRK cells,about 2.3 fold
platelet derived growth factor [PDGF],"DNA synthesis in response to PDGF, on vitronectin relative to collagen",[4],about 2.3 fold
